For experiment [1], the system named is Green Peach Aphid (Myzus Persicae). Kind of experiment: Insecticidal test for green peach aphid in foliar spray assay (col. MYZUPE). In kind it is in vivo. Conditions: for pest or weed control at 200 ppm: Myzus persicae, 72 h, read-out: MYZUPE 200 ppm (Corrected % Control, rating). The procedure, abridged: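 Corrected % control derives from microscope counts of live aphids per plant, treated against diluent-only checks, 3 days after foliar spraying at ~25 °C and 40% RH. Test solution was 200 ppm in 0.025% aqueous Tween 20, applied to both leaf sides of infested cabbage seedlings, four pots each.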

In experiment [2] the test system is Sweetpotato Whitefly-Crawler (Bemisia Tabaci). In words: Insecticidal test for sweetpotato whitefly-crawler in foliar spray assay (col. BEMITA). Conditions: for pest or weed control at 200 ppm: Bemisia tabaci, read-out: BEMITA 200 ppm (Corrected % Control, rating). The format is in vivo. The procedure, abridged: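 Percent control, Abbott-corrected against diluent-sprayed plants, from microscope counts of live nymphs 8-9 days after treatment. Test solution at 200 ppm in 0.025% aqueous Tween 20 applied to both leaf sides of egg-infested cotton after a 5-6 day hatch period (82° F, 50% RH).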

Structures are written as SMILES. Where two headings read alike, the source gives them in different places.

Regarding `CCN(C(=O)C(C)CSC)c1sc(-c2cccnc2)nc1-c1ccccc1` (centres unmarked) [Compound 62], the pest or weed control at 200 ppm in experiment [1] (green peach aphid) and in experiment [2] (sweetpotato whitefly-crawler) was less than 80% in each case.

For `CN(C(=S)NCCSc1ccc(Cl)cc1)c1sc(-c2cccnc2)nc1Cl` [Compound 512], the pest or weed control at 200 ppm in experiment [1] (Abbott's correction formula) is less than 80%; in experiment [2] (Abbott's correction formula) it was 80 to 100%.

For the compound `CCN(C(=O)Cc1cccs1)c1sc(-c2cccnc2)nc1Cl` [Compound 550], the pest or weed control at 200 ppm in experiment [1] (Abbott's correction formula) is less than 80%; in experiment [2] (Abbott's correction formula), 80 to 100%.

With `CSC(C)CC(=O)N(C)c1sc(-c2cccnc2)nc1Cl` (centres unmarked) [Compound 248], the pest or weed control at 200 ppm in experiment [1] (green peach aphid) and in experiment [2] (sweetpotato whitefly-crawler) was 80 to 100% in each case.

Regarding `CCc1nc(-c2cccnc2)sc1N(C)C(=O)C(C)C` [Compound 48], the pest or weed control at 200 ppm in experiment [1] (green peach aphid) and in experiment [2] (sweetpotato whitefly-crawler) was 80 to 100% throughout.

Regarding `CN(C(=O)C(F)(F)F)c1cnc(-c2cncc(F)c2)s1` [Compound 1, 2,2,2-trifluoro-N-[2-(5-fluoropyridin-3-yl)-thiazol-5-yl]-N-methyl-acetamide], the figures for the pest or weed control at 200 ppm in experiment [1] (green peach aphid) and in experiment [2] (sweetpotato whitefly-crawler) were less than 80% and 80 to 100%, respectively.

In the case of `Cc1nc(-c2cccnc2)sc1NC(=O)C1CCN1C(=O)OC(C)(C)C` (centres unmarked) [Compound 337], the values for the pest or weed control at 200 ppm in experiment [1] (green peach aphid) and in experiment [2] (sweetpotato whitefly-crawler) were less than 80% and 80 to 100%, respectively.

`CSCC(C)C(=O)N(C)c1sc(-c2cccnc2)nc1C` (centres unmarked) [Compound 36]: the pest or weed control at 200 ppm in experiment [1] (green peach aphid) and in experiment [2] (sweetpotato whitefly-crawler) was 80 to 100% each time.

Consider `COC(=O)CCC(=O)N(C)c1sc(-c2cccnc2)nc1C` [Compound 252], for which the pest or weed control at 200 ppm in experiment [1] (green peach aphid) and in experiment [2] (sweetpotato whitefly-crawler) was 80 to 100% each time.

Consider `CN(C(=O)CCS(C)(=O)=O)c1sc(-c2cncc(F)c2)nc1Cl` [Compound 273], for which the pest or weed control at 200 ppm in experiment [1] (green peach aphid) and in experiment [2] (sweetpotato whitefly-crawler) was 80 to 100% each time.

Regarding `CCN(C(=O)OC(C)(C)C)c1sc(-c2cncc(F)c2)nc1Cl` [Compound 267], the pest or weed control at 200 ppm in experiment [1] (green peach aphid) and in experiment [2] (sweetpotato whitefly-crawler) was 80 to 100% throughout.

`Cc1nc(C)n(CC(C)C(=O)Nc2sc(-c3cccnc3)nc2C)n1` (centres unmarked) [Compound 332]: the pest or weed control at 200 ppm in experiment [1] (green peach aphid) is 80 to 100%; in experiment [2] (sweetpotato whitefly-crawler), less than 80%.

In the case of `COc1cncc(-c2nc(C)c(N(C(=O)OC(C)(C)C)C(=O)C(C)CSC)s2)c1` (centres unmarked) [Compound 176], the pest or weed control at 200 ppm in experiment [1] (green peach aphid) and in experiment [2] (sweetpotato whitefly-crawler) was less than 80% each time.

Take `Cc1nc(-c2cccnc2)sc1N(C)C(=O)[C@@H](C)N(C)C(=O)OCc1ccccc1` [Compound 439]: the pest or weed control at 200 ppm in experiment [1] (Abbott's correction formula) and in experiment [2] (Abbott's correction formula) was less than 80% in each case.

As for `CCN(C(=O)C(CSC)C(=O)CCSC)c1sc(-c2cccnc2)nc1Cl` (centres unmarked) [Compound 496], the results for the pest or weed control at 200 ppm in experiment [1] (Abbott's correction formula) and in experiment [2] (Abbott's correction formula) were 80 to 100% and less than 80%, respectively.

For the compound `C[C@H](C(=O)N(C)c1sc(-c2cccnc2)nc1Cl)N(C)C(=O)OCc1ccccc1` [Compound 440], the pest or weed control at 200 ppm in experiment [1] (Abbott's correction formula) and in experiment [2] (Abbott's correction formula) was less than 80% throughout.

Consider `Cc1nc(-c2cccnc2)sc1N(C)C(=O)CN(C)S(C)(=O)=O` [Compound 433], for which the pest or weed control at 200 ppm in experiment [1] (Abbott's correction formula) and in experiment [2] (Abbott's correction formula) was 80 to 100% throughout.

As to `CCC(CS(C)(=O)=O)C(=O)N(CC)c1sc(-c2cccnc2)nc1Cl` (centres unmarked) [Compound 560], the pest or weed control at 200 ppm in experiment [1] (Abbott's correction formula) and in experiment [2] (Abbott's correction formula) was 80 to 100% throughout.

`Cc1nc(-c2cccnc2)sc1N(C)C(=O)[C@H](C)NC(=O)OC(C)(C)C` [Compound 194]: the pest or weed control at 200 ppm in experiment [1] (green peach aphid) and in experiment [2] (sweetpotato whitefly-crawler) was 80 to 100% in each case.

Consider `COCN(C(=O)C(C)CSC)c1sc(-c2cccnc2)nc1C` (centres unmarked) [Compound 196], for which the pest or weed control at 200 ppm in experiment [1] (green peach aphid) and in experiment [2] (sweetpotato whitefly-crawler) was 80 to 100% each time.

For `CCN(C(=O)OC(C)(C)C)c1sc(-c2cncc(F)c2)nc1Br` [Compound 303], the values for the pest or weed control at 200 ppm in experiment [1] (green peach aphid) and in experiment [2] (sweetpotato whitefly-crawler) were less than 80% and 80 to 100%, respectively.

On to `CSCC(C)C(=S)Nc1sc(-c2cccnc2)nc1C` (centres unmarked) [Compound 180, 2-methyl-N-(4-methyl-2-pyridin-3-yl-thiazol-5-yl)-3-methylsulfanyl-thiopropionamide], for which the pest or weed control at 200 ppm in experiment [1] (green peach aphid) and in experiment [2] (sweetpotato whitefly-crawler) was 80 to 100% in each case.

With `CSCCNC(=S)Nc1sc(-c2cncc(F)c2)nc1Cl` [Compound 450], the pest or weed control at 200 ppm in experiment [1] (Abbott's correction formula) and in experiment [2] (Abbott's correction formula) was 80 to 100% each time.

Turning to `CSCC(C)C(=O)N(C(=O)C(C)C)c1sc(-c2cncc(F)c2)nc1C` (centres unmarked) [Compound 200], the pest or weed control at 200 ppm in experiment [1] (green peach aphid) and in experiment [2] (sweetpotato whitefly-crawler) was 80 to 100% each time.

Turning to `CC(C)C(=O)N(C)c1sc(-c2cccnc2)nc1C(F)(F)F` [Compound 46], the pest or weed control at 200 ppm in experiment [1] (green peach aphid) and in experiment [2] (sweetpotato whitefly-crawler) was less than 80% throughout.

Turning to `CN(C(=O)c1ccns1)c1sc(-c2cccnc2)nc1Cl` [Compound 346], in experiment [1] (green peach aphid), the “MYZUPE 200 ppm (Corrected % Control, rating)” value is given as “B (Less than 80)”. For the same compound, the “BEMITA 200 ppm (Corrected % Control, rating)” value in experiment [2] (sweetpotato whitefly-crawler) was “A (80-100)”.

As to `Cc1nc(-c2cccnc2)sc1N(C)C(=O)[C@H](Cc1ccccc1)NC(=O)OC(C)(C)C` [Compound 280], the pest or weed control at 200 ppm in experiment [1] (green peach aphid) and in experiment [2] (sweetpotato whitefly-crawler) was less than 80% throughout.

As for `CC[C@H](NC(=O)OC(C)(C)C)C(=O)N(C)c1sc(-c2cccnc2)nc1C` [Compound 312], the pest or weed control at 200 ppm in experiment [1] (green peach aphid) and in experiment [2] (sweetpotato whitefly-crawler) was 80 to 100% each time.

Take `CSC(C)C(C)C(=O)N(C)c1sc(-c2cccnc2)nc1Cl` (centres unmarked) [Compound 516]: the results for the pest or weed control at 200 ppm in experiment [1] (Abbott's correction formula) and in experiment [2] (Abbott's correction formula) were 80 to 100% and less than 80%, respectively.

As to `CSCCNC(=S)N(C)c1sc(-c2cncc(F)c2)nc1Cl` [Compound 511], the values for the pest or weed control at 200 ppm in experiment [1] (Abbott's correction formula) and in experiment [2] (Abbott's correction formula) were 80 to 100% and less than 80%, respectively.

Regarding `CSCC(C)C(=O)N(C)c1sc(-c2cccnc2)nc1Br` (centres unmarked) [Compound 505], the pest or weed control at 200 ppm in experiment [1] (Abbott's correction formula) and in experiment [2] (Abbott's correction formula) was 80 to 100% in each case.

In the case of `CC(C)(C)OC(=O)Nc1sc(-c2cccnc2)nc1C(F)(F)F` [Compound 7, (2-pyridin-3-yl-4-trifluoromethyl-thiazol-5-yl)-carbamic acid tert-butyl ester], the pest or weed control at 200 ppm in experiment [1] (green peach aphid) and in experiment [2] (sweetpotato whitefly-crawler) was less than 80% in each case.

`Cc1nc(-c2cccnc2)sc1N(C)C(=O)[C@H](CSCc1ccccc1)NC(=O)OC(C)(C)C` [Compound 290]: the pest or weed control at 200 ppm in experiment [1] (green peach aphid) and in experiment [2] (sweetpotato whitefly-crawler) was less than 80% each time.

For the compound `CSCC(C)C(=O)Nc1sc(-c2cncc(Cl)c2)nc1C` (centres unmarked) [Compound 17, N-[2-(5-chloropyridin-3-yl)-4-methyl-thiazol-5-yl]-2-methyl-3-methylsulfanyl-propionamide], the pest or weed control at 200 ppm in experiment [1] (green peach aphid) and in experiment [2] (sweetpotato whitefly-crawler) was 80 to 100% throughout.

Take `CCN(C(=O)C1C[C@@H]1SC)c1sc(-c2cncc(F)c2)nc1Cl` (mixture of isomers) [Compound 448]: the pest or weed control at 200 ppm in experiment [1] (Abbott's correction formula) and in experiment [2] (Abbott's correction formula) was 80 to 100% in each case.

In the case of `CSCCC(=O)N(C)c1sc(-c2cncc(F)c2)nc1Cl` [Compound 266], the pest or weed control at 200 ppm in experiment [1] (green peach aphid) and in experiment [2] (sweetpotato whitefly-crawler) was 80 to 100% each time.

Regarding `CCN(C(=O)Cc1ccc(C(C)=O)s1)c1sc(-c2cccnc2)nc1Cl` [Compound 557], the pest or weed control at 200 ppm in experiment [1] (Abbott's correction formula) and in experiment [2] (Abbott's correction formula) was less than 80% in each case.

The values are drawn from US8853246B2 (Dow AgroSciences LLC, priority 2009, dated 2014).
